Measured values as given in PMC9569971, “New Oxazolo[5,4-d]pyrimidines as Potential Anticancer Agents: Their Design, Synthesis, and In Vitro Biological Activity Research” (International Journal of Molecular Sciences, 2022).
“Also recorded” adds a separate entry of the source. Marks after values point to notes of the source that are not given here.

Tests used:
[1] = test system: lung adenocarcinoma (A549); test: MTT viability assay, A549; type: cell-based, human
Procedure: (§1) When the confluence was greater than 70%, adherent cell lines were detached from the bottle surface with a TrypLE solution and then used in assays or reduced. The cells were collected into centrifuge tubes and centrifuged at 1000× g for 5 min at room temperature. The supernatant was removed to dry. The cell pellets were then resuspended in an appropriate medium. The cells were counted using a Bürker chamber and resuspended in 96-well plates to a cell density of 10,000 cells per well for MTT assay. For the rhodamine accumulation test and the detection of apoptosis assay, cells were seeded at a density of 30,000 per well. In the migration assay, cells were seeded at a density of 20,000 per well, and monolayer formation was awaited.
(§2) In this study, normal human dermal fibroblasts (NHDFs), breast cancer cells (MCF7), human lung adenocarcinoma cells (A549), murine fibroblasts (L929), colon adenocarcinoma cells (HT29), and colorectal adenocarcinoma cells (LoVo) were used. All cell lines were cultured in the recommended media. […] The human lung adenocarcinoma cell line A549 and breast cancer cell line MCF-7 were obtained from the ECACC. These cell lines were cultured in Eagle’s minimal essential medium (MEM). Murine fibroblast L929 (Sigma-Aldrich, Merck Group, Headquarters, Darmstadt, Germany; the European Collection of Authenticated Cell Cultures—ECACC) cells were grown in DMEM. […] All media were supplemented with 10% FBS and 100 µg/mL of penicillin–streptomycin.
(§3) All compounds were dissolved in DMSO and the reference drugs were dissolved in physiological saline to concentrations of 10 mM. Concentrations from 1 to 500 μM in the media recommended for the cell lines were prepared for the tests.
(§4) All of the synthesized derivatives were evaluated via the MTT assay. All cell lines were seeded into 96-well plates at a density of 10,000 cells per well. To allow the cells to adhere to the surface of the plates, they were incubated overnight before the application of the test compounds. […] The tests were performed for concentrations of 1, 5, 10, 25, 50, 100, 250, and 500 μM. The solutions of the test compounds were removed from the culture on the 96-well plates. […] The supernatant was then removed. The violet crystal was dissolved in isopropanol for 30 min by shaking. Absorbance was measured at 570 nm.
(§5) Biological assays were performed in three independent replicates, and each replicate used four samples. Three repetitions were made for the ELISA determinations. For the assessment of cytotoxicity, mathematical models were developed using the GraphPad PRISM software, based on which CC50 was determined. The values of CC50 were estimated based on nonlinear regression using the dependence of the biological effect on the molar concentrations of the compounds (four-parameter logistic model with Hill slope).

[2] = biological target: T1, P-glycoprotein (P-gp) in HT29 cells (Homo sapiens, UniProt P08183); test: Rhodamine-123 (Rh-123) accumulation assay; type: cell-based; settings: HT29, 24 h, over all tested concentrations (1–20 μM)
T1 construct: evaluate their effects on the efflux activity of P-gp in HT29 cells; host or cells: HT29 colon adenocarcinoma cells
Procedure: as §1
The level of significance was set at p < 0.05.

[3] = test system: normal human dermal fibroblasts (NHDF); test: MTT viability assay, NHDF; type: cell-based; settings: tested 1–500 µM
Procedure: as §1, §2, §3, §4, §5

[4] = test system: primary colon adenocarcinoma (HT29); test: MTT viability assay, HT29; type: cell-based, human
Procedure: as §1, §2, §3, §4, §5

[5] = test system: breast adenocarcinoma (MCF7); test: MTT viability assay, MCF7; type: cell-based, human; settings: MCF7, MTT, tested 1–500 µM
Procedure: as §1, §2, §3, §4, §5

[6] = test system: murine fibroblasts (L929); test: MTT viability assay, L929; type: cell-based; settings: tested 1–500 µM
Procedure: as §1, §2, §3, §4, §5

[7] = test system: HT29 primary colon adenocarcinoma cells; test: Detection of apoptosis (Annexin V FITC / propidium iodide); type: cell-based, human; parameters: unit not given here; settings: 24 h
Procedure: as §1, with “All cell lines were grown in 5% CO2 at 95% humidity and 37 °C, with both morphology and confluence assessed twice per week. When” for “When”
HT29 primary colon adenocarcinoma cells were grown in 96-well plates for 24 h. The 5 selected derivatives were added at concentrations of 1, 2, 5, and 10 µM, and then incubated for 24 h. The mixture of Annexin V conjugated with fluorescein and propidium iodide in PBS with Mg^2+ and Ca^2+ ions (Thermo Fisher Scientific, Waltham, MA, USA) was then applied. The incubation lasted 20 min at 37 °C. Pictures were taken using a fluorescence microscope. Thirteen images were taken from each well using an EVOS FL fluorescence microscope, with three replications for each compound. The open ImageJ space was used to analyze the number of cells. The Thermo Fisher Dead Cell Apoptosis Kit with Annexin V FITC and Propidium Iodide (PI) detects phosphatidylserine extrusion in apoptotic cells using Annexin V conjugated with a green fluorescent FITC dye and dead cells stained by PI with red fluorescence.

T1 sequence (P08183 whole entry): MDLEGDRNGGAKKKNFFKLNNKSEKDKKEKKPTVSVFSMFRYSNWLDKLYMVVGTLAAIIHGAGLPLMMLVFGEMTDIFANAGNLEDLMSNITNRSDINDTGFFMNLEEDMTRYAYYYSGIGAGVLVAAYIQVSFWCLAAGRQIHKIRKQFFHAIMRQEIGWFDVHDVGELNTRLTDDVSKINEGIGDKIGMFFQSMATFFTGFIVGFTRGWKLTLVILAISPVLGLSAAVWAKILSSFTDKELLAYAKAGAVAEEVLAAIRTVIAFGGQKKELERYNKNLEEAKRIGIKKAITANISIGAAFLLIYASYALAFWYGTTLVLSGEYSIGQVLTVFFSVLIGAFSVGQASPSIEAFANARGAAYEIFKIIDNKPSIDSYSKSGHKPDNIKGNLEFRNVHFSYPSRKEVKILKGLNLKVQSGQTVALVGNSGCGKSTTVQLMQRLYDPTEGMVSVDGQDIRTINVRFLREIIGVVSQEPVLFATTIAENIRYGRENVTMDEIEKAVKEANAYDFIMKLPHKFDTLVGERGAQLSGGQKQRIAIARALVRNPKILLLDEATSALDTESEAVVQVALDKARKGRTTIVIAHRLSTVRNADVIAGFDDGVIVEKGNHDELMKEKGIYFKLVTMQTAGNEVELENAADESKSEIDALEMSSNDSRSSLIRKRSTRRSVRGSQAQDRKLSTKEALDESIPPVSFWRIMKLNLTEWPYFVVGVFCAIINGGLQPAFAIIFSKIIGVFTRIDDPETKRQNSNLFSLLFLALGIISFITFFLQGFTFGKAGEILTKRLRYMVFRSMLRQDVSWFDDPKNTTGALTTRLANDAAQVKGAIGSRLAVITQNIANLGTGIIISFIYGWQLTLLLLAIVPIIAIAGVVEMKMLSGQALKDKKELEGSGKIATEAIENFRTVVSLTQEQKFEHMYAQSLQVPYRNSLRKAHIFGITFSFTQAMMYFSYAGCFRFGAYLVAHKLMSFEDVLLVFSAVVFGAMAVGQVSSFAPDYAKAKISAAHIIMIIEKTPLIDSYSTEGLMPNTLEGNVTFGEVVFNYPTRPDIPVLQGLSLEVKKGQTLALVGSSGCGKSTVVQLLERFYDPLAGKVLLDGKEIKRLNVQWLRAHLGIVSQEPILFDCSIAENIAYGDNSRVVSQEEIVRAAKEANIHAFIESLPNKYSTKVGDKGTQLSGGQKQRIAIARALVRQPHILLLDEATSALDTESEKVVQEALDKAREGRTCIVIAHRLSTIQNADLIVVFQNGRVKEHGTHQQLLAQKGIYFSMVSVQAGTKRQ

**Q.** `CNc1ncnc2oc(-c3c(C)noc3N)nc12` [Compound 3a, 2-(5-Amino-3-methylisoxazol-4-yl)-7-N-methylaminooxazolo[5,4-d]pyrimidine] was tested. Which “SI (selectivity index)” value ([1]; CC50 NHDF / CC50 A549) did it give?
**A.** The value was >>1 ^c.

**Q.** What about the CC50 ([1]; Homo sapiens, A549, MTT, tested 1–500 µM) of the same molecule?
**A.** Its CC50 is 245 ± 19 µM.

**Q.** And the “intracellular increase in rhodamine accumulation” value [2]?
**A.** Its value is “no intracellular increase”.

**Q.** What about the “CC50 ± SD” value [3] of the same molecule?
**A.** The value was “Non-toxic”.

**Q.** What about the “SI (selectivity index)” value ([4]; CC50 NHDF / CC50 HT29) of the same molecule?
**A.** The value was >>1.

**Q.** What about the CC50 ([4]; Homo sapiens, HT-29, HT29, MTT, tested 1–500 µM) of the same molecule?
**A.** Its CC50 is 159 ± 12.1 µM.

**Q.** What about the “CC50 ± SD” value [5] of the same molecule?
**A.** Its value is “no cytotoxic activity”.

**Q.** What about the “CC50 ± SD” value [6] of the same molecule?
**A.** Its value is “no toxic activity; also recorded: Non-toxic ^b”.

**Q.** And the apoptosis mean ([7]; 1 μM)?
**A.** The apoptosis mean was 6.89.

**Q.** What about the late apoptosis mean ([7]; 1 μM) of the same molecule?
**A.** The late apoptosis mean was 11.16.

**Q.** What about the necrosis mean ([7]; 1 μM) of the same molecule?
**A.** The necrosis mean was 4.43.

**Q.** And the “percent live (viable) cells” value ([7]; 1 μM)?
**A.** Its value is 77.51.

**Q.** What about the apoptosis mean ([7]; 2 μM) of the same molecule?
**A.** Its apoptosis mean is 5.35.

**Q.** And the late apoptosis mean ([7]; 2 μM)?
**A.** Its late apoptosis mean is 11.15.

**Q.** What about the necrosis mean ([7]; 2 μM) of the same molecule?
**A.** Its necrosis mean is 9.07.

**Q.** What about the “percent live (viable) cells” value ([7]; 2 μM) of the same molecule?
**A.** The value was 74.42.

**Q.** And the apoptosis mean ([7]; 5 μM)?
**A.** The apoptosis mean was 9.38.

**Q.** What about the late apoptosis mean ([7]; 5 μM) of the same molecule?
**A.** The late apoptosis mean was 11.51.

**Q.** What about the necrosis mean ([7]; 5 μM) of the same molecule?
**A.** The necrosis mean was 2.76.

**Q.** What about the “percent live (viable) cells” value ([7]; 5 μM) of the same molecule?
**A.** Its value is 76.34.

**Q.** And the apoptosis mean ([7]; 10 μM)?
**A.** Its apoptosis mean is 10.99.

**Q.** What about the late apoptosis mean ([7]; 10 μM) of the same molecule?
**A.** Its late apoptosis mean is 12.07.

**Q.** And the necrosis mean ([7]; 10 μM)?
**A.** Its necrosis mean is 5.55.

**Q.** And the “percent live (viable) cells” value ([7]; 10 μM)?
**A.** The value was 71.40.
